# Where a name gives a salt, the structure may show the parent alone.
# Biological target: T1, recombinant guanylate cyclase reporter cell line (Rattus norvegicus, UniProt P19686+P20595)
# T1 construct: expressed in transfected cells
# T1 sequence (P20595 1-619): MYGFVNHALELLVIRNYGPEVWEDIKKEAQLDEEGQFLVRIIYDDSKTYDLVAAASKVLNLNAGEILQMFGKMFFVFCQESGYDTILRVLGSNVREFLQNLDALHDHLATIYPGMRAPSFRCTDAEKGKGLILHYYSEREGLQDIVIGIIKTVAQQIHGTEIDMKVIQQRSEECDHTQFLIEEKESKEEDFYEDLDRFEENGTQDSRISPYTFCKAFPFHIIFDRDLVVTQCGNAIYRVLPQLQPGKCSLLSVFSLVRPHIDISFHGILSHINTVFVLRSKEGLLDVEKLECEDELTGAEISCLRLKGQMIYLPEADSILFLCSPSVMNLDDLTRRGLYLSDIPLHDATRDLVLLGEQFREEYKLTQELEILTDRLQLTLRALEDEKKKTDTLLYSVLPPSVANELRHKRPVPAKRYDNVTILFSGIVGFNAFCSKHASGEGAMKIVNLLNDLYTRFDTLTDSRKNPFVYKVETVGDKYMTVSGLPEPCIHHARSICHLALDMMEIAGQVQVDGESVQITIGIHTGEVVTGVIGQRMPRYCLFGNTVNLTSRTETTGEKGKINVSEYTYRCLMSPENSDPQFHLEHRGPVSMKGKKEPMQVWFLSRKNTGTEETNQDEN
# T1 sequence (P19686 1-690): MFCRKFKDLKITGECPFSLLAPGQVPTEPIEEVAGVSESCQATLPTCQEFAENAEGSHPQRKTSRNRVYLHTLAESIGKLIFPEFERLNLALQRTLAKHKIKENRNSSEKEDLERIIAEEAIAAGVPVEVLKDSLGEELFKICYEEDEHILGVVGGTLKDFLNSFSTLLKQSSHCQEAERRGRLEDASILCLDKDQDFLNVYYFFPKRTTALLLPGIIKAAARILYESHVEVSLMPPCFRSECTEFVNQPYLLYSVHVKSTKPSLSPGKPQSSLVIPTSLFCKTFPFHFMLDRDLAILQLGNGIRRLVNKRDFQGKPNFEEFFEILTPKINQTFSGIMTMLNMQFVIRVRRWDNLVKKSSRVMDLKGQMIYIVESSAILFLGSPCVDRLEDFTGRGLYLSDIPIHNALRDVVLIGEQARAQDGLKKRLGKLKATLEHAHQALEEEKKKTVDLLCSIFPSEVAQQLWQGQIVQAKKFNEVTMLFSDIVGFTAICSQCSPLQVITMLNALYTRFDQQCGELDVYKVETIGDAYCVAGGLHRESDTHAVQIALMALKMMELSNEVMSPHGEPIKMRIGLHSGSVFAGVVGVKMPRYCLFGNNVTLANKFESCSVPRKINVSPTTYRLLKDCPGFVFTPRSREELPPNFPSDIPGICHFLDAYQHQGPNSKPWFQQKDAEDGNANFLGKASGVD
# Assay: B-2. Action on recombinant guanylate cyclase reporter cell line
# Type: cell-based
# Settings: MEC = minimal effective concentration; in some cases mean values from individual determinations
# Summary of the method: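 Cellular activity was measured in a reporter cell line expressing recombinant guanylate cyclase. Values are given as MEC, the minimal effective concentration, and some are means of individual determinations.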
row,Compound,MEC [µM]
1,"CCCC(C)(N)CNC(=O)c1c(C2CC2)nc2c(OCc3c(F)cccc3F)cc(C)cn12 (stereo not drawn) [Example 322, ent-N-(2-amino-2-methylpentyl)-2-cyclopropyl-8-[(2,6-difluorobenzyl)oxy]-6-methylimidazo[1,2-a]pyridine-3-carboxamide]",0.30
2,"CCCC(C)(N)CNC(=O)c1c(C)nc2c(OCc3c(F)cccc3F)cc(CC)cn12 (stereo not drawn) [Example 323, ent-N-(2-amino-2-methylpentyl)-8-[(2,6-difluorobenzyl)oxy]-6-ethyl-2-methylimidazo[1,2-a]pyridine-3-carboxamide]",0.30
3,"Cc1cc(OCc2c(F)cccc2F)c2nc(C)c(C(=O)N[C@@H]3CC[C@](C)(N)C3(C)C)n2c1 [Example 324, N-[(1R,3S)-3-amino-2,2,3-trimethylcyclopentyl]-8-[(2,6-difluorobenzyl)oxy]-2,6-dimethylimidazo[1,2-a]pyridine-3-carboxamide]",1.00
4,"CCCc1nc2c(OCc3c(F)cccc3F)cc(C)cn2c1C(=O)NCC(C)(N)CC (stereo not drawn) [Example 327, ent-N-(2-amino-2-methylbutyl)-8-[(2,6-difluorobenzyl)oxy]-6-methyl-2-propylimidazo[1,2-a]pyridine-3-carboxamide]",1.00
5,"CCCC(C)(N)CNC(=O)c1c(CC)nc2c(OCc3c(F)cccc3F)cc(C)cn12 (stereo not drawn) [Example 338, ent-N-(2-amino-2-methylpentyl)-8-[(2,6-difluorobenzyl)oxy]-2-ethyl-6-methylimidazo[1,2-a]pyridine-3-carboxamide]",0.10
6,"Cc1cc(OCc2c(F)cccc2F)c2nc(C)c(C(=O)NCC(C)(C)NCCO)n2c1 [Example 349, 8-[(2,6-Difluorobenzyl)oxy]-N-{2-[(2-hydroxyethyl)amino]-2-methylpropyl}-2,6-dimethylimidazo[1,2-a]pyridine-3-carboxamide]",1.00
7,"COc1cccc(F)c1COc1cc(C)cn2c(C(=O)NCC(C)(C)N)c(C)nc12 [Example 352, N-(2-amino-2-methylpropyl)-8-[(2-fluoro-6-methoxybenzyl)oxy]-2,6-dimethylimidazo[1,2-a]pyridine-3-carboxamide]",3.00
8,"CCCC(C)(N)CNC(=O)c1c(C)nc2c(OCc3ccccc3Br)cc(C)cn12 (stereo not drawn) [Example 353, N-(2-amino-2-methylpentyl)-8-[(2-bromobenzyl)oxy]-2,6-dimethylimidazo[1,2-a]pyridine-3-carboxamide]",3.00
9,"CCCC(C)(N)CNC(=O)c1cnc2c(OCc3c(F)cccc3F)cccn12 (stereo not drawn) [Example 354, ent-N-(2-amino-2-methylpentyl)-8-[(2,6-difluorobenzyl)oxy]imidazo[1,2-a]pyridine-3-carboxamide]",3.00
10,"C#Cc1cc(OCc2c(F)cccc2F)c2nc(C)c(C(=O)NCC(C)(N)CCC)n2c1 (stereo not drawn) [Example 355, ent-N-(2-amino-2-methylpentyl)-8-[(2,6-difluorobenzyl)oxy]-6-ethynyl-2-methylimidazo[1,2-a]pyridine-3-carboxamide Formate]",0.30
11,"C#Cc1cc(OCc2c(F)cccc2F)c2nc(C)c(C(=O)NCC(C)(N)CCC)n2c1 (stereo not drawn) [Example 356, ent-N-(2-amino-2-methylpentyl)-8-[(2,6-difluorobenzyl)oxy]-6-ethynyl-2-methylimidazo[1,2-a]pyridine-3-carboxamide]",0.10
12,"CCCC(C)(N)CNC(=O)c1c(C)nc2c(OCc3c(F)ccc(C4CC4)c3F)cc(C)cn12 (stereo not drawn) [Example 359, ent-N-(2-amino-2-methylpentyl)-8-[(3-cyclopropyl-2,6-difluorobenzyl)oxy]-2,6-dimethylimidazo[1,2-a]pyridine-3-carboxamide]",3.00
13,"CCC(C)(N)CNC(=O)c1c(C)nc2c(OCc3c(F)ccc(OC)c3F)cc(C)cn12 (stereo not drawn) [Example 360, ent-N-(2-amino-2-methylbutyl)-8-[(2,6-difluoro-3-methoxybenzyl)oxy]-2,6-dimethylimidazo[1,2-a]pyridine-3-carboxamide]",1.00
14,"COc1ccc(F)c(COc2cc(C)cn3c(C(=O)NCC(C)(N)CF)c(C)nc23)c1F (stereo not drawn) [Example 361, ent-N-(2-amino-3-fluoro-2-methylpropyl)-8-[(2,6-difluoro-3-methoxybenzyl)oxy]-2,6-dimethylimidazo[1,2-a]pyridine-3-carboxamide]",1.00
15,"Cc1cc(OCc2c(F)ccc(C3CC3)c2F)c2nc(C)c(C(=O)NCC(C)(N)CF)n2c1 (stereo not drawn) [Example 362, N-(2-amino-3-fluoro-2-methylpropyl)-8-[(3-cyclopropyl-2,6-difluorobenzyl)oxy]-2,6-dimethylimidazo[1,2-a]pyridine-3-carboxamide]",1.00
16,"CCC(C)(N)CNC(=O)c1c(C)nc2c(OCc3c(F)ccc(C4CC4)c3F)cc(C)cn12 (stereo not drawn) [Example 363, ent-N-(2-amino-2-methylbutyl)-8-[(3-cyclopropyl-2,6-difluorobenzyl)oxy]-2,6 dimethylimidazo[1,2-a]pyridine-3-carboxamide]",3.00
17,"CCCC(C)(N)CNC(=O)c1c(C)nc2c(OCc3c(F)ccc(OC)c3F)cc(C)cn12 (stereo not drawn) [Example 364, ent-N-(2-amino-2-methylpentyl)-8-[(2,6-difluoro-3-methoxybenzyl)oxy]-2,6-dimethylimidao[1,2-a]pyridine-3-carboxamide]",0.30
18,"Cc1cc(OCc2c(F)cccc2F)c2nc(C)c(C(=O)NC34CC5CC(CC(N)(C5)C3)C4)n2c1 [Example 365, N-(3-aminoadamantan-1-yl)-8-[(2,6-difluorobenzyl)oxy]-2,6-dimethylimidazo[1,2-a]pyridine-3-carboxamide Formate]",1.00
19,"CCCC(C)(N)CNC(=O)c1c(C)nc2c(OCc3c(F)cccc3F)cc(CF)cn12 (stereo not drawn) [Example 403, ent-N-(2-amino-2-methylpentyl)-8-[(2,6-difluorobenzyl)oxy]-6-(fluoromethyl)-2-methylimidazo[1,2-a]pyridine-3-carboxamide]",0.10
20,"CCC(C)(N)CNC(=O)c1c(C)nc2c(OCc3c(F)cccc3F)cc(CF)cn12 (stereo not drawn) [Example 404, ent-N-(2-amino-2-methylbutyl)-8-[(2,6-difluorobenzyl)oxy]-6-(fluoromethyl)-2-methylimidazo[1,2-a]pyridine-3-carboxamide]",0.30
21,"Cc1nc2c(OCc3c(F)cccc3F)cc(CF)cn2c1C(=O)NCC(C)(N)CF (stereo not drawn) [Example 405, ent-N-(2-amino-3-fluoro-2-methylpropyl)-8-[(2,6-difluorobenzyl)oxy]-6-(fluoromethyl)-2-methylimidazo[1,2-a]pyridine-3-carboxamide]",0.30

# From patent US9624214B2, “Amino-substituted imidazo[1,2-a]pyridinecarboxamides and their use” (BAYER PHARMA AKTIENGESELLSCHAFT, priority 2012, dated 2017)
